Values quoted from earlier work as cited in patent US4952402A, “Controlled release powder and process for its preparation” (priority 1984, dated 1990).

## Cn1c(=O)c2[nH]cnc2n(C)c1=O [theophylline]
In vivo
  apparent biological half-life: 4-9 hours
Rapid or immediate release
  time of peak: 2 h
